According to ChEMBL document CHEMBL5370535, “Thiazolyl hydrazineylidenyl indolones as unique potential multitargeting broad-spectrum antimicrobial agents” (Eur J Med Chem, 2023):
Converted amounts (≈) assume the structure as drawn.

Key:
Type in all cases: functional
Staphylococcus aureus [1] = assay: Antibacterial activity against Staphylococcus aureus assessed as bacterial growth inhibition incubated for 24 hrs by CLSI based two serial dilution assay
Escherichia coli [2] = assay: Antibacterial activity against Escherichia coli 25922 assessed as bacterial growth inhibition incubated for 24 hrs by CLSI based two serial dilution assay
Candida tropicalis = assay: Antifungal activity against Candida tropicalis assessed as inhibition of fungal growth incubated for 24 hrs by CLSI based two serial dilution assay
Acinetobacter baumannii = assay: Antibacterial activity against Acinetobacter baumannii assessed as bacterial growth inhibition incubated for 24 hrs by CLSI based two serial dilution assay
Pseudomonas aeruginosa [3] = assay: Antibacterial activity against Pseudomonas aeruginosa assessed as bacterial growth inhibition incubated for 24 hrs by CLSI based two serial dilution assay
Staphylococcus aureus [4] = assay: Antibacterial activity against Staphylococcus aureus 25923 assessed as bacterial growth inhibition incubated for 24 hrs by CLSI based two serial dilution assay
Escherichia coli [5] = assay: Antibacterial activity against Escherichia coli assessed as bacterial growth inhibition incubated for 24 hrs by CLSI based two serial dilution assay
Enterococcus faecalis = assay: Antibacterial activity against Enterococcus faecalis assessed as bacterial growth inhibition incubated for 24 hrs by CLSI based two serial dilution assay
Candida albicans [6] = assay: Antifungal activity against Candida albicans ATCC 90023 assessed as inhibition of fungal growth incubated for 24 hrs by CLSI based two serial dilution assay
Pseudomonas aeruginosa [7] = assay: Antibacterial activity against Pseudomonas aeruginosa ATCC 27853 assessed as bacterial growth inhibition incubated for 24 hrs by CLSI based two serial dilution assay
Aspergillus fumigatus = assay: Antifungal activity against Aspergillus fumigatus assessed as inhibition of fungal growth incubated for 24 hrs by CLSI based two serial dilution assay
Candida albicans [8] = assay: Antifungal activity against Candida albicans assessed as inhibition of fungal growth incubated for 24 hrs by CLSI based two serial dilution assay
Klebsiella pneumoniae = assay: Antibacterial activity against Klebsiella pneumoniae assessed as bacterial growth inhibition incubated for 24 hrs by CLSI based two serial dilution assay
Candida parapsilosis = assay: Antifungal activity against Candida parapsilosis ATCC 22019 assessed as inhibition of fungal growth incubated for 24 hrs by CLSI based two serial dilution assay; conditions: Lodderomyces parapsilosis
Staphylococcus aureus [9] = assay: Antibacterial activity against Staphylococcus aureus 29213 assessed as bacterial growth inhibition incubated for 24 hrs by CLSI based two serial dilution assay
Staphylococcus aureus [10] = assay: Antibacterial activity against methicillin-resistant Staphylococcus aureus assessed as bacterial growth inhibition incubated for 24 hrs by CLSI based two serial dilution assay

SMILES | MIC (Staphylococcus aureus [1]) | MIC (Escherichia coli [2]) | MIC (Candida tropicalis) | MIC (Acinetobacter baumannii) | MIC (Pseudomonas aeruginosa [3]) | MIC (Staphylococcus aureus [4]) | MIC (Escherichia coli [5]) | MIC (Enterococcus faecalis) | MIC (Candida albicans [6]) | MIC (Pseudomonas aeruginosa [7]) | MIC (Aspergillus fumigatus) | MIC (Candida albicans [8]) | MIC (Klebsiella pneumoniae) | MIC (Candida parapsilosis) | MIC (Staphylococcus aureus [9]) | MIC (Staphylococcus aureus [10])
O=C1/C(=N\Nc2nccs2)c2ccccc2N1Cc1ccccc1F | 4 µM (≈ 1.41 µg/mL) | 256 µM (≈ 90.2 µg/mL) | 16 µM (≈ 5.64 µg/mL) | 512 µM (≈ 180 µg/mL) | 256 µM (≈ 90.2 µg/mL) | 4 µM (≈ 1.41 µg/mL) | 512 µM (≈ 180 µg/mL) | 8 µM (≈ 2.82 µg/mL) | 128 µM (≈ 45.1 µg/mL) | 512 µM (≈ 180 µg/mL) | 128 µM (≈ 45.1 µg/mL) | 64 µM (≈ 22.6 µg/mL) | 512 µM (≈ 180 µg/mL) | 128 µM (≈ 45.1 µg/mL) | 256 µM (≈ 90.2 µg/mL) | 8 µM (≈ 2.82 µg/mL)
O=C1/C(=N\Nc2nccs2)c2ccccc2N1Cc1cccc(F)c1 | 4 µM (≈ 1.41 µg/mL) | 256 µM (≈ 90.2 µg/mL) | 16 µM (≈ 5.64 µg/mL) | 256 µM (≈ 90.2 µg/mL) | 128 µM (≈ 45.1 µg/mL) | 16 µM (≈ 5.64 µg/mL) | 512 µM (≈ 180 µg/mL) | 8 µM (≈ 2.82 µg/mL) | 32 µM (≈ 11.3 µg/mL) | 128 µM (≈ 45.1 µg/mL) | 128 µM (≈ 45.1 µg/mL) | 64 µM (≈ 22.6 µg/mL) | 256 µM (≈ 90.2 µg/mL) | 32 µM (≈ 11.3 µg/mL) | 4 µM (≈ 1.41 µg/mL) | 64 µM (≈ 22.6 µg/mL)
O=C1/C(=N\Nc2nccs2)c2ccccc2N1Cc1ccc(Cl)cc1 | 4 µM (≈ 1.48 µg/mL) | 32 µM (≈ 11.8 µg/mL) | 16 µM (≈ 5.9 µg/mL) | 64 µM (≈ 23.6 µg/mL) | 16 µM (≈ 5.9 µg/mL) | 4 µM (≈ 1.48 µg/mL) | 128 µM (≈ 47.2 µg/mL) | 64 µM (≈ 23.6 µg/mL) | 32 µM (≈ 11.8 µg/mL) | 128 µM (≈ 47.2 µg/mL) | 16 µM (≈ 5.9 µg/mL) | 16 µM (≈ 5.9 µg/mL) | 32 µM (≈ 11.8 µg/mL) | 4 µM (≈ 1.48 µg/mL) | 4 µM (≈ 1.48 µg/mL) | 64 µM (≈ 23.6 µg/mL)
CCN1C(=O)/C(=N\Nc2nccs2)c2ccccc21 | 64 µM (≈ 17.4 µg/mL) | 64 µM (≈ 17.4 µg/mL) | 64 µM (≈ 17.4 µg/mL) | 512 µM (≈ 139 µg/mL) | 2 µM (≈ 0.545 µg/mL) | 64 µM (≈ 17.4 µg/mL) | 32 µM (≈ 8.71 µg/mL) | 32 µM (≈ 8.71 µg/mL) | 128 µM (≈ 34.9 µg/mL) | 512 µM (≈ 139 µg/mL) | 32 µM (≈ 8.71 µg/mL) | 64 µM (≈ 17.4 µg/mL) | 64 µM (≈ 17.4 µg/mL) | 64 µM (≈ 17.4 µg/mL) | 16 µM (≈ 4.36 µg/mL) | 32 µM (≈ 8.71 µg/mL)
CCCCCCN1C(=O)/C(=N\Nc2nccs2)c2ccccc21 | 16 µM (≈ 5.26 µg/mL) | 16 µM (≈ 5.26 µg/mL) | 16 µM (≈ 5.26 µg/mL) | 16 µM (≈ 5.26 µg/mL) | 4 µM (≈ 1.31 µg/mL) | 32 µM (≈ 10.5 µg/mL) | 64 µM (≈ 21 µg/mL) | 4 µM (≈ 1.31 µg/mL) | 64 µM (≈ 21 µg/mL) | 32 µM (≈ 10.5 µg/mL) | 32 µM (≈ 10.5 µg/mL) | 32 µM (≈ 10.5 µg/mL) | 16 µM (≈ 5.26 µg/mL) | 64 µM (≈ 21 µg/mL) | 2 µM (≈ 0.657 µg/mL) | 64 µM (≈ 21 µg/mL)
O=C1/C(=N\Nc2nccs2)c2ccccc2N1Cc1ccc(F)cc1 | 64 µM (≈ 22.6 µg/mL) | 16 µM (≈ 5.64 µg/mL) | 32 µM (≈ 11.3 µg/mL) | 16 µM (≈ 5.64 µg/mL) | 16 µM (≈ 5.64 µg/mL) | 4 µM (≈ 1.41 µg/mL) | 16 µM (≈ 5.64 µg/mL) | 2 µM (≈ 0.705 µg/mL) | 128 µM (≈ 45.1 µg/mL) | 4 µM (≈ 1.41 µg/mL) | 128 µM (≈ 45.1 µg/mL) | 32 µM (≈ 11.3 µg/mL) | 16 µM (≈ 5.64 µg/mL) | 64 µM (≈ 22.6 µg/mL) | 4 µM (≈ 1.41 µg/mL) | 128 µM (≈ 45.1 µg/mL)
CCCCN1C(=O)/C(=N\Nc2nccs2)c2cccc(Cl)c21 | 64 µM (≈ 21.4 µg/mL) | 0.5 µM (≈ 0.167 µg/mL) | 4 µM (≈ 1.34 µg/mL) | 0.5 µM (≈ 0.167 µg/mL) | 1 µM (≈ 0.335 µg/mL) | 0.5 µM (≈ 0.167 µg/mL) | 1 µM (≈ 0.335 µg/mL) | 1 µM (≈ 0.335 µg/mL) | 1 µM (≈ 0.335 µg/mL) | 0.5 µM (≈ 0.167 µg/mL) | 128 µM (≈ 42.9 µg/mL) | 0.5 µM (≈ 0.167 µg/mL) | 0.5 µM (≈ 0.167 µg/mL) | 32 µM (≈ 10.7 µg/mL) | 64 µM (≈ 21.4 µg/mL) | 0.5 µM (≈ 0.167 µg/mL)
CCCCN1C(=O)/C(=N\Nc2nccs2)c2cc(Br)cc(Br)c21 | 16 µM (≈ 7.33 µg/mL) | 1 µM (≈ 0.458 µg/mL) | 1 µM (≈ 0.458 µg/mL) | 512 µM (≈ 235 µg/mL) | 1 µM (≈ 0.458 µg/mL) | 0.5 µM (≈ 0.229 µg/mL) | 1 µM (≈ 0.458 µg/mL) | 0.5 µM (≈ 0.229 µg/mL) | 1 µM (≈ 0.458 µg/mL) | 512 µM (≈ 235 µg/mL) | 512 µM (≈ 235 µg/mL) | 0.5 µM (≈ 0.229 µg/mL) | 0.5 µM (≈ 0.229 µg/mL) | 128 µM (≈ 58.6 µg/mL) | 16 µM (≈ 7.33 µg/mL) | 1 µM (≈ 0.458 µg/mL)
O=C(N[C@H](CO)[C@H](O)c1ccc([N+](=O)[O-])cc1)C(Cl)Cl [CHLORAMPHENICOL] | 8 µM (≈ 2.59 µg/mL) | 16 µM (≈ 5.17 µg/mL) |  | 16 µM (≈ 5.17 µg/mL) | 32 µM (≈ 10.3 µg/mL) | 8 µM (≈ 2.59 µg/mL) | 32 µM (≈ 10.3 µg/mL) | 8 µM (≈ 2.59 µg/mL) |  | 8 µM (≈ 2.59 µg/mL) |  |  | 8 µM (≈ 2.59 µg/mL) |  | 4 µM (≈ 1.29 µg/mL) | 16 µM (≈ 5.17 µg/mL)
OC(Cn1cncn1)(Cn1cncn1)c1ccc(F)cc1F [FLUCONAZOLE] |  |  | 8 µM (≈ 2.45 µg/mL) |  |  |  |  |  | 2 µM (≈ 0.613 µg/mL) |  | 256 µM (≈ 78.4 µg/mL) | 4 µM (≈ 1.23 µg/mL) |  | 4 µM (≈ 1.23 µg/mL) |  | 
C=CC1=C(C(=O)O)N2C(=O)[C@@H](NC(=O)/C(=N\O)c3csc(N)n3)[C@H]2SC1 [CEFDINIR] | 1 µM (≈ 0.395 µg/mL) | 2 µM (≈ 0.791 µg/mL) |  | 2 µM (≈ 0.791 µg/mL) | 0.5 µM (≈ 0.198 µg/mL) | 0.5 µM (≈ 0.198 µg/mL) | 1 µM (≈ 0.395 µg/mL) | 2 µM (≈ 0.791 µg/mL) |  | 1 µM (≈ 0.395 µg/mL) |  |  | 0.5 µM (≈ 0.198 µg/mL) |  | 0.5 µM (≈ 0.198 µg/mL) | 1 µM (≈ 0.395 µg/mL)
